Measured values reported in patent US20170044372A1, “CELL TRACKING REAGENTS AND THEIR METHODS OF USE” (LIFE TECHNOLOGIIES CORPORATION, priority 2014, published 2017).

Test system: HeLa cells
Test: CYQUANT Direct cytotoxicity / cell viability assay
Type: cell-based
Details: 96 well plate, labeled at 10 μM for 30 mins at 37° C. in LCIS, assayed on days 1, 2 and 3, compared to DMSO alone
Method: FIG. 2: Lack of cytotoxicity of Compound 10, as measured by the CYQUANT Direct (Thermo Fisher Scientific) method. Fluorescence on the Y-axis is proportional to cell population viability. HeLa cells plated in a 96 well plate were labeled with CELLTRACKER Red, Compound 10, or DMSO in Live Cell Imaging Solution (LCIS) at 10 μM concentration for 30 mins at 37° C. The LCIS was then aspirated from cells and complete media added for an overnight incubation. The following day (Day 1) cells were assayed for cytotoxicity using the CYQUANT Direct assay (Thermo Fisher Scientific).
A549, HeLa and U-2 OS cells were plated in a 24-well plate at a concentration of 2000 cells/well. Compound 10 was added at a final concentration of 10 μM in Live Cell Imaging Solution (Life Technologies Corporation, Carlsbad, Calif.) and incubated for 30-60 min at 37° C. Cells were washed in dPBS and the cell media was added. Cells were scanned using the scan routine on an EVOS FL Auto microscope (Thermo Fisher Scientific) for 10% of the middle of the well. The same scan routine was used on Days 2, 3 and 4 of growth. Cell viability was assessed using CYQUANT Direct (Thermo Fisher Scientific) using the same scan routine as described above. The results in HeLa cells can be seen in FIGS. 1 and 2.

In the case of `CN(C)c1ccc2c(-c3ccc(C(=O)ON4C(=O)CCC4=O)cc3C(=O)O)c3ccc(=[N+](C)C)cc-3oc2c1` [Compound 10], the “cytotoxicity as measured by the CYQUANT Direct method (fluorescence proportional to cell population viability)” value is reported as “no cytotoxicity”.
